In patent US20080194630A1, “LTA4H modulators and uses thereof” (priority 2007, published 2008):

What was measured:
[1] = test system: LTB4 production in murine whole blood (LTA4H); assay: LTB4 production by calcium ionophore-stimulated murine blood for LTA4H inhibitor activity; assay type: cell-based, CD-1 mice; settings: CD-1 mouse blood diluted 1:15, calcium ionophore A23187 20 ng/mL, LTB4 by enzyme-linked immunoassay
[2] = test system: ex vivo stimulated LTB4 production; assay: Murine arachidonic acid-induced inflammation model: ex vivo stimulated LTB4 production in blood; parameters: species or system female Balb/c mice; settings: 30 mg/kg oral gavage, blood taken 3 h after arachidonic acid, ex vivo A23187 stimulation, vs animals without inhibitor
Experimental: Murine arachidonic acid-induced inflammation model
LTA4H inhibitor compounds of the present invention were dissolved in 20% cyclodextran/H2O at a concentration of 3 mg/mL. The solutions were administered by oral gavage to female Balb/c mice weighing approximately 20 grams each (0.2 mL per mouse, 30 mg of LTA4H inhibitor compound per kg). Sixty minutes after being administered an LTA4 inhibitor, each mouse received topical application of 20 μL of arachidonic acid (100 mg/mL in acetone) to the left ear and 20 μL of acetone only to the right ear. After 3 h, the mice were sacrificed, blood was withdrawn in heparinized syringes, and 8 mm ear biopsies were taken. […]
One hundred-microliter aliquots of heparinized blood were added to wells of a microtiter plate, along with equal volumes of RPMI-1640 medium, and calcium ionophore A23187 was added to each sample well (final concentration=20 ng/μL). […] Supernatants were analyzed for LTB4 by a commercially available enzyme-linked immunoassay (Cayman Chemical Co.) in accordance with the manufacturer's instructions. The percent inhibition of ex vivo stimulated LTB4 production (% Inh. LTB4) was determined by comparison to animals treated identically except that the solution admininstered by oral gavage was devoid of inhibitor compound.

[3] = test system: neutrophil influx (myeloperoxidase, MPO); assay: Murine arachidonic acid-induced inflammation model: neutrophil influx in ear (myeloperoxidase activity); assay type: in vivo, female Balb/c mice; settings: Mus musculus, 30 mg/kg oral gavage 60 min before topical arachidonic acid, ear biopsy after 3 h, vs animals without inhibitor
Experimental: Murine arachidonic acid-induced inflammation model LTA4H inhibitor compounds of the present invention were dissolved in 20% cyclodextran/H2O at a concentration of 3 mg/mL. The solutions were administered by oral gavage to female Balb/c mice weighing approximately 20 grams each (0.2 mL per mouse, 30 mg of LTA4H inhibitor compound per kg). Sixty minutes after being administered an LTA4 inhibitor, each mouse received topical application of 20 μL of arachidonic acid (100 mg/mL in acetone) to the left ear and 20 μL of acetone only to the right ear. After 3 h, the mice were sacrificed, blood was withdrawn in heparinized syringes, and 8 mm ear biopsies were taken. Ear biopsies were weighed to determine edema and then frozen at -80° C. until needed for determination of neutrophil influx. Neutrophil influx was quantified by measuring the activity of myeloperoxidase (MPO), a neutrophil-specific enzyme. […] Debris was removed by centrifugation at 14000×g for 10 min. […] The microtiter plate contents were held at room temperature for 1 h. […] H2SO4 to each sample well, and the myeloperoxidase activity in each sample was determined from the absorbance at 405 nm. […] The percent inhibition of neutrophil influx (% Inh. MPO) by compounds of the invention was determined by comparison to animals treated identically, except that the solution administered by oral gavage was devoid of inhibitor compound.

[4] = test system: ionophore-induced LTB4 production; settings: oral administration; cited from earlier work
[5] = test system: ionophore-induced LTB4 production; settings: oral administration; cited from earlier work; remark: listed apart in the source
[6] = test system: pruritus; settings: human, in vivo; cited from earlier work
[7] = test system: atopic dermatitis; settings: small open-label trial in AD; cited from earlier work

CC(C)N(CCC(=O)O)CCc1ccc(Oc2nc3ccccc3s2)cc1 [Example 180, 3-({2-[4-(Benzothiazol-2-yloxy)-phenyl]-ethyl}-isopropyl-amino)-propionic acid]
IC50 [1]: 15 nM | inhibition at 30 mg/kg ([2]; Mus musculus, read-out: % Inh. LTB4): 87% | inhibition at 30 mg/kg [3]: 87%

O=C(O)C1CCN(Cc2ccc(Oc3nc4ccccc4s3)cc2)CC1 [Example 250, 1-[4-(Benzothiazol-2-yloxy)-benzyl]-piperidine-4-carboxylic acid]
% Inh. LTB4 [2]: 80%

CN(CCCOc1ccc(Cc2ccccc2)cc1)CCC(=O)O.Cl [SC57461]
ionophore-induced LTB4 production in rat peritoneum in vivo [4]: caused inhibition | ionophore-induced LTB4 production in mouse blood ex vivo [5]: caused inhibition

CC(c1cc2ccccc2s1)N(O)C(N)=O (centres unmarked) [zileuton]
pruritus in Sjögren-Larsson syndrome patients [6]: relieving the pruritus | effects in atopic dermatitis [7]: beneficial effects
